A short description of series [1]: Inhibition of Influenza A virus H5N1-1220 Neuraminidase.
A short description of series [2]: Inhibition of Influenza A virus H9N2-S2 Neuraminidase.
Series [3] can be described thus: Inhibition of Influenza A virus H5N1 Neuraminidase.
Series [4] in a line: Inhibition of Influenza A virus H5N2 Neuraminidase.
Series [5] is described as follows: in vitro. The conditions noted are these: dog, MDCK cells.
In another series the target is Cytochrome P450 2C19 (Homo sapiens, UniProt P33261). In kind it is ADME, microsomes, Liver, Microsome.
A short description of series [6]: Subacute toxicity in Kunming mouse assessed as food consumption at 50 mg/kg, IG mesured every second day for 2 weeks. It is filed as organism-based. The conditions noted are these: in vivo, po, 336 h.
The nature of series [7]: in vivo. To be noted: Sprague-Dawley, rat, iv, 2 mg/kg.
The conditions of series [8]: rat, in vivo, po, 20 mg/kg, 24 h.
Another series deals with T1, Cytochrome P450 1A2 (Homo sapiens, UniProt P05177).
T1 sequence (P05177 whole entry): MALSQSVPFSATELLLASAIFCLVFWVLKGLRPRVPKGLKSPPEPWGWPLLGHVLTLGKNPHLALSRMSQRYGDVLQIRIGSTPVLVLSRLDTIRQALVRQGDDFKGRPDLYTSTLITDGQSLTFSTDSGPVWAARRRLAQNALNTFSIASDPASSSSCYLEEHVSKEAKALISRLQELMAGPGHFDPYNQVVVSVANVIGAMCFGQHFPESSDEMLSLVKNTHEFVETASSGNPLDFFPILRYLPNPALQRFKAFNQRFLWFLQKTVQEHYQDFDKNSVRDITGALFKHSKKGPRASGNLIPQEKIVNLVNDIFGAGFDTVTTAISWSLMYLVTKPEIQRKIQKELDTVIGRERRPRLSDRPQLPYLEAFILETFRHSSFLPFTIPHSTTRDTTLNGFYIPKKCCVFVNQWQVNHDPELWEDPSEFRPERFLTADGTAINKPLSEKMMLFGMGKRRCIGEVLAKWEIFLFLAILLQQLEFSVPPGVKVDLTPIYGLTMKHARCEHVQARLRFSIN

Series [9] in a line: Tmax in Sprague-Dawley rat at 2 mg/kg, iv measured upto 24 hrs by LC-MS/MS analysis. It is filed as ADME, organism-based. The conditions noted are these: in vivo.
The nature of series [10]: Acute toxicity in Kunming mouse assessed as animal death at 1000 mg/kg, IG observed upto 1 week. It is filed as organism-based. The conditions noted are these: in vivo, po, 168 h, time < 1 weeks.
Series [11] can be described thus: Half life in Sprague-Dawley rat at 20 mg/kg, po measured upto 24 hrs by LC-MS/MS analysis. It is filed as ADME, organism-based. The conditions noted are these: in vivo.
Series [12] is described as follows: Subacute toxicity in Kunming mouse assessed as animal death at 50 mg/kg, IG mesured every second day for 2 weeks. In kind it is organism-based. To be noted: in vivo, po, 336 h.
Series [13] is described as follows: in vitro. To be noted: human, liver.
The next series has as its target Cytochrome P450 2D6 (Homo sapiens, UniProt P10635).
Series [14] is described as follows: Subacute toxicity in female Kunming mouse assessed as increase in body weight at 50 mg/kg, IG mesured every second day for 2 weeks. It is filed as organism-based. To be noted: in vivo, po, 336 h.
A short description of series [15]: Acute toxicity in Kunming mouse assessed as lethargy at 1000 mg/kg, IG observed upto 1 week. To be noted: in vivo, po, 168 h, time < 1 weeks. In kind it is organism-based.
A short description of series [16]: Subacute toxicity in male Kunming mouse assessed as increase in body weight at 50 mg/kg, IG mesured every second day for 2 weeks. It is filed as organism-based. The conditions noted are these: in vivo, po, 336 h.
A short description of series [17]: Cmax in Sprague-Dawley rat at 20 mg/kg, po measured upto 24 hrs by LC-MS/MS analysis. In kind it is ADME, organism-based. On the set-up: dose 20 mg/kg, time < 24 hrs, route po. To be noted: in vivo.
The nature of series [18]: Tmax in Sprague-Dawley rat at 20 mg/kg, po measured upto 24 hrs by LC-MS/MS analysis. It is filed as ADME, organism-based. To be noted: in vivo.
Series [19] in a line: Acute toxicity in Kunming mouse assessed as increase in body weight at 1000 mg/kg, IG observed upto 1 week. It is filed as organism-based. To be noted: in vivo, po, 168 h, time < 1 weeks.
The nature of series [20]: Acute toxicity in Kunming mouse assessed as ruffled fur at 1000 mg/kg, IG observed upto 1 week. It is filed as organism-based. To be noted: in vivo, po, 168 h, time < 1 weeks.
Series [21] in a line: Oral bioavailability in Sprague-Dawley rat at 20 mg/kg measured upto 24 hrs by LC-MS/MS analysis. It is filed as ADME, organism-based. To be noted: in vivo.
A short description of series [22]: in vitro. To be noted: human, liver microsomes. For orientation: Microsomes from liver hold many membrane-bound enzymes, among them those of drug oxidation.
A short description of series [23]: in vivo. The conditions noted are these: Sprague-Dawley, rat, iv, 2 mg/kg. The source holds these as a separate data set.
A short description of series [24]: Acute toxicity in Kunming mouse assessed as clonic convulsion at 1000 mg/kg, IG observed upto 1 week. In kind it is organism-based. The conditions noted are these: in vivo, po, 168 h, time < 1 weeks.
Series [25] can be described thus: in vitro. To be noted: human, liver microsomes. This is another data set of the same source.
Series [26] can be described thus: in vitro. The conditions noted are these: human, liver microsomes. The source holds these as a separate data set.
Series [27] can be described thus: Subacute toxicity in Kunming mouse assessed as water consumption at 50 mg/kg, IG mesured every second day for 2 weeks. To be noted: in vivo, po, 336 h. It is filed as organism-based.
Series [28] is described as follows: Volume of distribution in Sprague-Dawley rat at 2 mg/kg, iv measured upto 24 hrs by LC-MS/MS analysis. To be noted: in vivo. It is filed as ADME, organism-based.
A further series deals with Cytochrome P450 3A4 (Homo sapiens, UniProt P08684).
Series [29] is described as follows: Acute toxicity in Kunming mouse assessed as anorexia at 1000 mg/kg, IG observed upto 1 week. The conditions noted are these: in vivo, po, 168 h, time < 1 weeks. In kind it is organism-based.
The nature of series [30]: Cmax in Sprague-Dawley rat at 2 mg/kg, iv measured upto 24 hrs by LC-MS/MS analysis. On the set-up: time < 24 hrs, dose 2 mg/kg, route iv. In kind it is ADME, organism-based. The conditions noted are these: in vivo.
The nature of series [31]: in vivo. The conditions noted are these: Sprague-Dawley, rat, po, 20 mg/kg.
Series [32] in a line: in vitro. To be noted: human, liver microsomes. This is another data set of the same source.
The target in another series is Cytochrome P450 2C9 (Homo sapiens, UniProt P11712). It is filed as ADME, microsomes, Liver, Microsome.
Series [33] can be described thus: Half life in Sprague-Dawley rat at 2 mg/kg, iv measured upto 24 hrs by LC-MS/MS analysis. The conditions noted are these: in vivo. In kind it is ADME, organism-based.

The structures appear in SMILES notation. A value given as a limit tells only on which side of the number the result lay.

Sequence of Cytochrome P450 2C9 (P11712 whole entry): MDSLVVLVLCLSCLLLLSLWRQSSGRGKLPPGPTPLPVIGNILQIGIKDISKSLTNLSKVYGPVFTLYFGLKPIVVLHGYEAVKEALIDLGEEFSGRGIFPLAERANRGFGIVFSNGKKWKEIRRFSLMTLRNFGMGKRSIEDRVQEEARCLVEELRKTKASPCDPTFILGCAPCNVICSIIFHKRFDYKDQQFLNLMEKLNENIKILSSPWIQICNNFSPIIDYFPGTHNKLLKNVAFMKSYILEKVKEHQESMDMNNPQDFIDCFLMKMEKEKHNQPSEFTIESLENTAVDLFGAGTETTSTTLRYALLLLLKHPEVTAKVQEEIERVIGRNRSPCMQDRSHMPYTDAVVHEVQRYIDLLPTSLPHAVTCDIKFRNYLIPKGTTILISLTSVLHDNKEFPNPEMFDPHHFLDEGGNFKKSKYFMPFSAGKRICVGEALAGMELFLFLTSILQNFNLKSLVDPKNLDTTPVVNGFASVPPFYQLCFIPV
Sequence of Cytochrome P450 2D6 (P10635 whole entry): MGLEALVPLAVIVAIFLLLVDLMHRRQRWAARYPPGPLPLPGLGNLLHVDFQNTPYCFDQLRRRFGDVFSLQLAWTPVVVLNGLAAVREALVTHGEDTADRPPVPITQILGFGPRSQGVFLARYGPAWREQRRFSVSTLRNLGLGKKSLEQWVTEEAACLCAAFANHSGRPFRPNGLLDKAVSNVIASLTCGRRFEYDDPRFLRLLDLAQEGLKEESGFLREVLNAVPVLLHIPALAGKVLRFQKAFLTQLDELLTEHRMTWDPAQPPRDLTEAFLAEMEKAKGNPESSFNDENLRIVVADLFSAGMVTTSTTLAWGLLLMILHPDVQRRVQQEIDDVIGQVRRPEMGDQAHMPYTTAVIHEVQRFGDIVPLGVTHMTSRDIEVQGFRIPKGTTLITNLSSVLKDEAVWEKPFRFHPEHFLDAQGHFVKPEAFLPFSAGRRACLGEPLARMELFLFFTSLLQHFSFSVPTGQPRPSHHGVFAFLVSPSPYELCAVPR
Sequence of Cytochrome P450 3A4 (P08684 whole entry): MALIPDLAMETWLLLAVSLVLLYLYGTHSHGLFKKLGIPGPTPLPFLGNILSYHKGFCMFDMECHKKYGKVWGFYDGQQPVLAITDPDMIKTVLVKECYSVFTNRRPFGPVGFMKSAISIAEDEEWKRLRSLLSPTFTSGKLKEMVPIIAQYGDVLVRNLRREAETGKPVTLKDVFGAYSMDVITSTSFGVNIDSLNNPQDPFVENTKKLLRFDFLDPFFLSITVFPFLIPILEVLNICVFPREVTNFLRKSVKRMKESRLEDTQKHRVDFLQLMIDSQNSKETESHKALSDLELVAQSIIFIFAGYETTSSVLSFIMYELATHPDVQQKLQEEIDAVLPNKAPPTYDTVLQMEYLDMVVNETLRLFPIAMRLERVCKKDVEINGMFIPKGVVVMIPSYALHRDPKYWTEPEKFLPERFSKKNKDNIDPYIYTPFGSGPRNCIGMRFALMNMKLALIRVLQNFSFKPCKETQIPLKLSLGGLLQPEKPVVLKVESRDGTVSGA
Sequence of Cytochrome P450 2C19 (P33261 whole entry): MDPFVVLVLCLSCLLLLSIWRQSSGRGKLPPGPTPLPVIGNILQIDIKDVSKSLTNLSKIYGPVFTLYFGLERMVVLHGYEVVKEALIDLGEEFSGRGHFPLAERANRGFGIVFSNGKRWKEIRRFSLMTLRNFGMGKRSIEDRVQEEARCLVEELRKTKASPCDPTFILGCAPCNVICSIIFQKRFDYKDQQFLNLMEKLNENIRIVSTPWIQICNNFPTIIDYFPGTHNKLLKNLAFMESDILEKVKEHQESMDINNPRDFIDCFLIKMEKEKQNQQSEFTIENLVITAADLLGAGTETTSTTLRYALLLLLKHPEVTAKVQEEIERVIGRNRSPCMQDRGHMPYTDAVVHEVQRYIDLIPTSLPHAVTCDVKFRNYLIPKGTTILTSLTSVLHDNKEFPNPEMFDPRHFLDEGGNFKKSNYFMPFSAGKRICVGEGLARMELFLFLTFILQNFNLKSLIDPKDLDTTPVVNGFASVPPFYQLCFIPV

Turning to `CCC(CC)O[C@@H]1C=C(C(=O)O)C[C@H](NCc2ccc(-c3ccccc3)cc2)[C@H]1NC(C)=O`, the IC50 in series [1] was found to be 0.0019 µM; in series [2] it was 0.58 µM.

Turning to `CCC(CC)O[C@@H]1C=C(C(=O)O)C[C@H](NCc2ccc(Sc3ccccc3)cc2)[C@H]1NC(C)=O`, the IC50 in [3] amounted to 0.00096 µM; in series [4], 0.869 µM.

As for `CCC(CC)O[C@@H]1C=C(C(=O)O)C[C@H](NCc2ccc3oc4ccccc4c3c2)[C@H]1NC(C)=O`, the CC50 at 48 h in the series “in vitro [5]” stood at 250 µM.

In the case of `CCC(CC)O[C@@H]1C=C(C(=O)O)C[C@H](NCc2ccc3c(c2)c2ccccc2n3CC)[C@H]1NC(C)=O`, the CC50 at 48 h in “in vitro [5]” was determined as 250 µM.

Regarding `CCC(CC)O[C@@H]1C=C(C(=O)O)C[C@H](NCc2ccc3sc4ccccc4c3c2)[C@H]1NC(C)=O`, the IC50 against Cytochrome P450 2C19 was over 100 µM; against Cytochrome P450 1A2, 89.4 µM; against Cytochrome P450 2D6 it was 58.9 µM; against Cytochrome P450 3A4, over 100 µM; on Cytochrome P450 2C9, 60.8 µM. In addition, the Activity result in series [6] is “Non-Toxic”; in series [10], “Non-Toxic”; in [12], “Non-Toxic”; in series [14], “Toxic”; in [15] it was “Non-Toxic”; in series [16], “Toxic”. Moreover, the Activity entry in series [19] is given as “Toxic”; in [20] it was “Non-Toxic”; in [24] it was “Non-Toxic”; in series [27], “Non-Toxic”; in series [29], “Non-Toxic”. Further, the results for the AUC(0-t) at 24 h in the series “in vivo [7]” and in the series “in vivo [31]” were 4280 ng·h/mL and 5830 ng·h/mL, respectively. For the same molecule, in [8], the AUC stood at 5854 ng·h/mL. Further, the Tmax in series [9] turned out to be 4.98 min; in series [18] it was 30 min. For the same molecule, the half-life in series [11] is 61.8 min; in “in vitro [22]” it was over 145 min; in [33], 44.6 min. Moreover, the CLint scaled in the series “in vitro [13]” is under 8.6 mL/min/kg. Further, the CC50 at 48 h in “in vitro [5]” is 250 µM. Further, the maximum concentration (Cmax) in series [17] is 6300 ng/mL; in series [30] it was 13000 ng/mL. The bioavailability in series [21] turned out to be 13.7%. Also, in the series “in vivo [23]”, the AUC(0-inf) at 24 h is 4290 ng·h/mL. In addition, the amount remaining at 1 h in the series “in vitro [25]” amounted to 99.6%; in the series “in vitro [32]” it was 84.7%. This molecule also yielded a microsomal CLint in the series “in vitro [26]” of under 9.6 µL/min/mg. The molecule also had a Vd in [28] of 0.161 L/kg.

`CCC(CC)O[C@@H]1C=C(C(=O)O)C[C@H](NCc2c3ccccc3cc3ccccc23)[C@H]1NC(C)=O`: in the series “in vitro [5]”, the midpoint of cytotoxicity, the CC50 at 48 h, lay at 250 µM.

The molecule `CCC(CC)O[C@@H]1C=C(C(=O)O)C[C@H](NCc2ccc3c(c2)Cc2ccccc2-3)[C@H]1NC(C)=O` showed a CC50 at 48 h in the series “in vitro [5]” of 250 µM.

For the molecule `O=C(O)Cc1ccccc1Nc1c(Cl)cccc1Cl` [DICLOFENAC], in “in vitro [13]”, the CLint scaled turned out to be 151 mL/min/kg. Further, the half-life in the series “in vitro [22]” came to 8.2 min. This molecule displayed a microsomal CLint in “in vitro [26]” of 168 µL/min/mg.

In the case of `CCC(CC)O[C@@H]1C=C(C(=O)O)C[C@H](N)[C@H]1NC(C)=O` [OSELTAMIVIR CARBOXYLATE], the CC50 at 48 h in “in vitro [5]” stood at 250 µM.

With `C[C@]12CC[C@H]3[C@@H](CCC4=CC(=O)CC[C@@]43C)[C@@H]1CC[C@@H]2O` [TESTOSTERONE], the CLint scaled in the series “in vitro [13]” turned out to be 66.2 mL/min/kg. In the series “in vitro [22]”, this molecule showed a half-life of 18.8 min. The amount remaining at 1 h came out at 9.8% in the series “in vitro [25]” and 87.2% in “in vitro [32]”. In “in vitro [26]”, this molecule gave a microsomal CLint of 73.6 µL/min/mg.

Usually IC50 stands for the concentration needed to halve the response being measured. The term CC50 denotes the concentration giving 50% cytotoxicity. The AUC(0-t) is exposure summed from dosing to a finite time, without extrapolation to infinity. What is called AUC is concentration integrated over time. Low readings indicate low exposure, high ones high exposure. Usually Tmax stands for the time at which the peak concentration occurs. By half-life is commonly meant the time in which the quantity being followed falls by half. As a reminder, the CLint scaled is a measure of how fast metabolising enzymes remove a compound, apart from limits set by blood flow. Broadly, the Cmax is the maximum level reached in the sampled fluid or tissue. A word on the bioavailability: it is the share of a dose that reaches the circulation, judged against a reference dose that is usually intravenous. As usually defined, the AUC(0-inf) is the area under the concentration-time curve extrapolated to infinity. The term amount remaining denotes what is left of the initial amount, in per cent. The low end stands for a greater loss, the high end for greater stability. The term microsomal CLint denotes the capacity of the preparation to metabolise the compound, expressed as a volume cleared per time. Low readings indicate slow turnover, high ones rapid turnover. The term Vd denotes a proportionality between amount in the body and measured concentration, not a real space. High values mean wide distribution into tissue, low ones little distribution into tissue.

Source of the values: ChEMBL document CHEMBL5150010 (J Med Chem, 2021).
